The values that follow come from a melting point compilation (Tetko et al.).

`Nc1ncc(Br)cc1F`: the melting point was in the range of 87 to 89 °C. `CC(C)(C)C(=O)NC1CCCNC1` (centres undefined) returned a melting point of 99 to 101 °C. `COc1ccc(C(C)=CC(=O)O)cc1`: the melting point was 108 to 110 °C.

Consider `CC(C)(C)OC(=O)NC(C(N)=NO)c1ccccc1OC(F)(F)F` (centres undefined), for which the melting point lay within 119 to 121 °C. Compound `Cc1ccc(-c2ccc(C(=O)O)c(F)c2)cc1` had a melting point of 247 to 249 °C. In the case of `COc1ccc(Oc2ccc(N)cn2)cc1`, the melting point was in the range of 95 to 97 °C. To `COC(=O)COc1c(C)cc(C(=O)O)cc1C` belongs 173 to 175 °C; to `CC(C)C(NC(=O)c1ccccc1F)C(=O)O` (centres undefined), 116 to 118 °C. Then `CC(Br)C(=O)c1ccc2c(c1)CCC(=O)N2` (centres undefined), with 193 to 195 °C; and `O=C(O)CCCOc1ccc(S(=O)(=O)Cl)cc1F`, with 112 to 114 °C. On to `O=C(O)c1cc(OCC(F)(F)F)ccc1[N+](=O)[O-]`, for which the melting point was in the range of 156 to 158 °C. Consider `NC(=O)c1csc(Br)c1`, for which the melting point was in the range of 142 to 144 °C. In turn, `NC(=O)c1ccc(NCc2ccccc2)c(N)c1` had a melting point of 169 to 171 °C. Then `Cc1cccc(C(N)=O)n1`, with 117 to 119 °C. The compound `Nc1c(-c2ccco2)nc2ccccn12` registered a melting point of 165 to 167 °C. For the compound `CC(C)(C)n1cc(C(=O)O)cn1`, the melting point lay in the range of 155 to 157 °C. As to `Cc1csc(C(O)(CC(=O)O)C(F)(F)F)n1` (centres undefined), the melting point was in the range of 109 to 111 °C.

In turn, `CC(=O)c1ccc(N(C)C)cc1O` displayed a melting point of 120 to 122 °C. Then `O=C(O)c1cc(Cl)ccc1OC(F)F`, with 109 to 111 °C; and `Nc1ccc(C(=O)N2CCC(CO)CC2)cc1`, with 138 to 140 °C. For `O=C(O)c1nnn(-c2cccc(C(F)(F)F)c2)c1C1CC1`, the melting point lay within 169 to 171 °C. `CN(C)c1ccc(C2CC2C(=O)O)cc1` (centres undefined) displayed a melting point of 119 to 121 °C.

With `O=c1onc(-c2ccccc2)n1CC1CO1` (centres undefined), the melting point was 81 to 83 °C. The compound `COc1ccc(C(=O)c2ccco2)cc1` showed a melting point of 62 to 64 °C. `CNC1(C(=O)O)CCCCC1` displayed a melting point of 309 to 311 °C. Compound `CCc1n[nH]c(N)n1` returned a melting point of 154 to 156 °C. `Sc1nnnn1-c1ccc2c(c1)OCCO2` showed a melting point of 143 to 145 °C. In the case of `CS(=O)(=O)Cc1cccc(N)c1`, the melting point lay within 121 to 123 °C. With `CCN(CC)S(=O)(=O)c1ccc(N2CCOCC2)c(N)c1`, the melting point is 94 to 96 °C. Turning to `O=C(CBr)c1c[nH]c2ncccc12`, the melting point fell in the range of 209 to 211 °C.

In the case of `N#Cc1ccc2c(c1)C=CS2(=O)=O`, the melting point lay in the range of 149 to 151 °C. Then `CCc1cc(=O)c2ccccc2[nH]1`, with 174 to 176 °C; and `Clc1ncncc1I`, with 54 to 56 °C. The compound `c1cc(-c2ccn[nH]2)ccn1` registered a melting point of 154 to 156 °C.

Compound `N#Cc1ccc(OCC2CO2)cc1` (centres undefined) yielded a melting point of 64 to 66 °C.

In the case of `COc1nc(C)ccc1C(=O)O`, the melting point was 107 to 109 °C. Take `CC(C)(C)OC(=O)Nc1ccc(F)cc1N`: the melting point lay in the range of 131 to 133 °C. `O=C(O)c1nn(-c2ccccc2F)cc1Br` came in with a melting point of 235 to 237 °C. The compound `Cc1nc(N)n(-c2ccccc2)n1` registered a melting point of 131 to 133 °C. In the case of `CCOC(=O)c1ccn(-c2ccccc2N)n1`, the melting point is 79 to 81 °C. In turn, `N#CCc1nnc2n1CCCCC2` yielded a melting point of 113 to 115 °C. To `O=C1OCC(c2ccc(Cl)cc2)=C1c1cccs1` belongs 65 to 67 °C. Compound `CCOc1ccc(C(C)=O)cc1OCC` had a melting point of 49 to 51 °C. `O=C(O)c1nc(Cl)cnc1Br`: the melting point lay within 99 to 101 °C. Then `O=C(O)CNC(=O)NCC1CCCC1`, with 138 to 140 °C; and `COc1ccccc1C1(C(=O)O)CCC1`, with 149 to 151 °C; and `O=C(O)c1ccc(NC2CC2)nc1`, with 178 to 180 °C. Then `Nc1cnn(CC(=O)O)c1`, with 206 to 208 °C; and `Cc1ccc2oc(-c3nnc(S)n3N)cc2c1`, with 228 to 230 °C; and `COc1ccc(Nc2ccccc2)cc1`, with 104 to 106 °C.

The compound `Nc1ccc(Cl)cc1C(=O)NCC1CC1` had a melting point of 152 to 154 °C.

`Cn1cnnc1Sc1ccc(N)cc1Cl` showed a melting point of 168 to 170 °C.

As to `CCc1nc2ccccc2n1CC(=O)NN`, the melting point was 211 to 213 °C. For `NC(=O)c1cccc(C=O)c1`, the melting point fell in the range of 108 to 110 °C.

Turning to `CN1C(=C(C#N)C(=O)CCl)Nc2ccccc21`, the melting point is 244 to 246 °C. Then `CCOC(=O)/C(=C(/O)C(C)Cl)c1nc(C)cs1` (centres undefined), with 123 to 125 °C; and `Cn1cc(C#N)cc1C(=O)C(Cl)(Cl)Cl`, with 146 to 148 °C. Then `O=C(O)c1ccccc1OCc1cccs1`, with 87 to 89 °C.

`COc1cccc2cc(C=O)oc12` yielded a melting point of 45 to 47 °C.

Compound `CCN(C(=O)CCl)c1nc2ccccc2s1` displayed a melting point of 233 to 235 °C. Compound `NNC(=O)c1cccc(S(=O)(=O)N2CCCC2)c1` displayed a melting point of 153 to 155 °C. `Cc1nc(-c2ccccc2)c(N)n1C`: the melting point fell in the range of 145 to 147 °C. `O=C(O)c1ccccc1NCCC1=CCCCC1` displayed a melting point of 129 to 131 °C. With `N#Cc1ccc(NCC(=O)O)nc1`, the melting point was 167 to 169 °C.

Regarding `Cc1cccc(C(=O)NO)c1O`, the melting point was in the range of 139 to 141 °C. Then `Brc1c[nH]c2nc(C3CCCO3)nc-2c1` (centres undefined), with 219 to 221 °C; and `COC(=O)CNc1ccc(Br)cn1`, with 105 to 107 °C; and `C=CCn1c(S)nc2sc3c(c2c1=O)CCC(C)C3` (centres undefined), with 228 to 230 °C.

Consider `CC(C)C1CNC(=O)C1` (centres undefined), for which the melting point was 98 to 100 °C. To `COc1ccc(Br)c(-c2nnn[nH]2)c1` belongs 209 to 211 °C; to `CCC1Oc2c(Cl)cccc2NC1=O` (centres undefined), 139 to 141 °C; to `Cc1cccc(C)c1Nc1nnc(S)s1`, 266 to 268 °C. To `CC(C)c1cnc(S)n1C(C)C` belongs 177 to 179 °C.

Consider `O=S(=O)(Cl)c1ccc(-n2cnnn2)cc1`, for which the melting point was 179 to 181 °C. With `CC(Br)c1ccc2ccccc2c1` (centres undefined), the melting point fell in the range of 62 to 64 °C. Compound `O=C(O)CCC=Cc1ccccc1` displayed a melting point of 86 to 88 °C. Then `Cc1cc(C(=O)CCl)c(C)n1CC1CCCO1` (centres undefined), with 88 to 90 °C; and `CC(C)(C)c1cnc(N)s1`, with 79 to 81 °C; and `Nc1cc(-c2ccsc2)n[nH]1`, with 127 to 129 °C.

Regarding `O=Cc1ccc(-c2nc3ccccc3s2)o1`, the melting point was in the range of 177 to 179 °C. Compound `N#Cc1cc(CO)ccn1` had a melting point of 109 to 111 °C. With `COc1ccc(S(=O)(=O)NC(CCC(N)=O)C(=O)O)cc1` (centres undefined), the melting point lay in the range of 171 to 173 °C. Regarding `Cc1nc(N)sc1Cc1cccc(F)c1`, the melting point lay in the range of 82 to 84 °C. The compound `O=[N+]([O-])c1ccc(O)c(-n2cnnn2)c1` displayed a melting point of 199 to 201 °C.

Compound `O=C(O)CCC(=O)NCC(=O)c1ccccc1` had a melting point of 143 to 145 °C.

Consider `Nc1ncc(Cc2ccc(F)c(F)c2)s1`, for which the melting point lay in the range of 97 to 99 °C. To `Nc1ccccc1Oc1ncc(Cl)cc1Cl` belongs 104 to 106 °C; to `Fc1ccc(-c2nnc(Cl)c3ccccc23)cc1F`, 164 to 166 °C; to `Cc1oc(S(N)(=O)=O)cc1C(=O)O`, 209 to 211 °C. Regarding `CC(C)CC(Cc1cccc(Br)c1)C(=O)O` (centres undefined), the melting point lay within 66 to 68 °C. Then `COC(=O)C(=O)CC(=O)c1cccc(Cl)c1`, with 29 to 31 °C; and `NNC(=O)CNc1cccc(C(F)(F)F)c1`, with 80 to 82 °C.

With `CCc1ccc(N(C(C)=O)c2nc(CCl)cs2)cc1`, the melting point fell in the range of 195 to 197 °C. To `COC(=O)CCCc1nnc(N)s1` belongs 149 to 151 °C; to `CC(C)(C)c1nc2ccc(S(=O)(=O)Cl)cc2s1`, 122 to 124 °C; to `O=C(O)CCc1nncn1-c1ccccc1`, 202 to 204 °C.

For the compound `O=C(NCCO)c1ccccc1C(F)(F)F`, the melting point lay in the range of 61 to 63 °C. Compound `Cc1cnn(-c2ccc(C(N)=O)cc2N)c1` had a melting point of 164 to 166 °C. Consider `N#CCOc1ccc(CBr)cc1`, for which the melting point lay in the range of 74 to 76 °C.

The compound `CSc1nc2ncccc2o1` came in with a melting point of 62 to 64 °C. Turning to `CC(C)c1nn(C2CCS(=O)(=O)C2)cc1C(=O)O` (centres undefined), the melting point was in the range of 202 to 204 °C. For `Cc1nc(CC(=O)NN)cs1`, the melting point was in the range of 114 to 116 °C.

Turning to `COC(=O)C(Br)CN1C(=O)c2ccccc2C1=O` (centres undefined), the melting point is 99 to 101 °C. In the case of `NS(=O)(=O)c1cc(C(=O)O)ccc1F`, the melting point lay in the range of 236 to 238 °C.

The compound `COC(=O)c1cc2c(nc1N)CCCC2` gave a melting point of 126 to 128 °C.

With `Cc1cc(Cl)c2cc(F)c(F)c(F)c2n1`, the melting point lay in the range of 73 to 75 °C. Then `COC(=O)Cn1ccc(N)n1`, with 74 to 76 °C; and `COc1c(C#N)cnc2ccccc12`, with 106 to 108 °C.

`NCCCNC(=O)c1cccc(Br)c1`: the melting point fell in the range of 52 to 54 °C. To `CC(C)(C)CCN1CCNCC1` belongs 119 to 122 °C; to `CCCN1CCc2c(sc(N)c2C(N)=O)C1`, 139 to 141 °C; to `Cc1c[nH]c(=O)n1-c1ccccc1`, 210 to 212 °C.

In turn, `O=C(O)c1cccc(F)c1I` came in with a melting point of 148 to 150 °C. As to `COc1ccc(-c2nnc(S)n2C(C)C)cc1`, the melting point lay in the range of 218 to 220 °C. In turn, `CC(=O)c1ccc(NC(=O)CI)cc1` displayed a melting point of 139 to 141 °C. Consider `COc1ccc(C(=O)O)c(Br)c1`, for which the melting point is 189 to 191 °C. On to `O=C(NC(Cc1c[nH]c2ccccc12)C(=O)O)c1ccc(F)cc1` (centres undefined), for which the melting point was in the range of 95 to 98 °C.

For the compound `CCOC(=O)c1[nH]ncc1C=O`, the melting point lay within 168 to 170 °C. Consider `O=C(O)CC(O)c1cc(Cl)cc(Cl)c1` (centres undefined), for which the melting point fell in the range of 198 to 200 °C. As for `Cn1cnnc1Sc1ccccc1N`, the melting point was in the range of 137 to 139 °C. The compound `COc1c(Br)cc(Br)cc1C=O` returned a melting point of 93 to 96 °C. Turning to `NNc1ncnc2sccc12`, the melting point lay in the range of 211 to 213 °C. Regarding `Nc1ccc(Sc2nncs2)c(Cl)c1`, the melting point was 112 to 114 °C. Regarding `Cc1nc2c(cnn2C)c(=O)[nH]1`, the melting point fell in the range of 274 to 276 °C.
